Measurements reported in US4345938A, “Herbicidal 2-haloacetanilides” (Monsanto Company, priority 1980, dated 1982).
Read-outs that look alike come from different tables or passages of the source.

Experiments:
Assay type in all cases: in vivo
[1] = system: Rice; assay: Field transplant rice test, applied 0 DAT, rice injury; conditions: for inhibition at 375 g/ha / inhibition at 750 g/ha / inhibition at 1500 g/ha / inhibition at 3000 g/ha: Oryza sativa, 0 h, read-out: Percent Inhibition, Rice; for inhibition at 375 g/ha: 0.375 Kg/Ha; for inhibition at 750 g/ha: 0.75 Kg/Ha; for inhibition at 1500 g/ha: 1.5 Kg/Ha; for inhibition at 3000 g/ha: 3.0 Kg/Ha
Procedure: (§1) In further comparative tests, a preferred compound of this invention (Example 1) was tested in the field with prior art Compounds A-D. These tests were conducted under conditions reflecting herbicide application times generally favorable to all herbicides in the test. The timing of application of herbicides to transplant rice is very important, whether, as in some instances, prior to transplanting the rice; in other instances, at the time of transplanting or else after transplanting. Application times are conventionally referred to as "days before transplant" (DBT) or "days after transplant" ("DAT"). The field test data in Table IV was obtained from a test in which the herbicides were applied at the time of transplant, i.e., "0 DAT", with observations being made weekly up to six weeks after transplant ("WAT") beginning at two weeks after transplant; for illustrative and representative purposes, only the early, middle and late period observations, i.e., 2 WAT, 4 WAT and 6 WAT, are shown in Table IV. The data in Table IV is for rates of application common to all herbicides in the test, i.e., from 3.0 kg/ha (2.67 lb/A) down to 0.375 kg/ha (0.34 lb/A). All herbicides were applied at their actual or expected use rates, i.e., as granules containing 2.5% by weight herbicide for the compound of Example 1, Compounds B, C and D and 5.0% by weight for Compound A.

[2] = system: Echinochloa crus-galli; assay: Field transplant rice test, applied 0 DAT, EC; conditions: 0 h, read-out: Percent Inhibition, EC; for inhibition at 375 g/ha: 0.375 Kg/Ha; for inhibition at 750 g/ha: 0.75 Kg/Ha; for inhibition at 1500 g/ha: 1.5 Kg/Ha; for inhibition at 3000 g/ha: 3.0 Kg/Ha
Procedure: (§2) The test data in Table III for all compounds was obtained under identical test conditions. The weeds used in the tests herein have the following abbreviations in the tables: Echinochloa crus-galli (EC), Monochloria vaginalis (MV), Cyperus Serotinus (CS), Eleocharis Kuroguwai (EK) and Sagittaria trifolia (ST).
as §1

[3] = system: Monochoria vaginalis; assay: Field transplant rice test, applied 0 DAT, MV; conditions: Pontederia vaginalis, 0 h, read-out: Percent Inhibition, MV; for inhibition at 375 g/ha: 0.375 Kg/Ha; for inhibition at 750 g/ha: 0.75 Kg/Ha; for inhibition at 1500 g/ha: 1.5 Kg/Ha; for inhibition at 3000 g/ha: 3.0 Kg/Ha
Procedure: as §2, §1

[4] = system: Eleocharis kuroguwai; assay: Field transplant rice test, applied 0 DAT, EK; conditions: 0 h, read-out: Percent Inhibition, EK; for inhibition at 375 g/ha: 0.375 Kg/Ha; for inhibition at 750 g/ha: 0.75 Kg/Ha; for inhibition at 1500 g/ha: 1.5 Kg/Ha; for inhibition at 3000 g/ha: 3.0 Kg/Ha
Procedure: as §2, §1

[5] = system: Cyperus serotinus; assay: Field transplant rice test, applied 9 DAT, CS; conditions: for inhibition at 375 g/ha / inhibition at 750 g/ha / inhibition at 1500 g/ha / inhibition at 3000 g/ha: Cyperus serotinus, 216 h, read-out: Percent Inhibition, CS; for inhibition at 375 g/ha: 0.375 Kg/Ha; for inhibition at 750 g/ha: 0.75 Kg/Ha; for inhibition at 1500 g/ha: 1.5 Kg/Ha; for inhibition at 3000 g/ha: 3.0 Kg/Ha; for selectivity factor (GR15/GR85), CS in transplant rice: between 3 WAT and 7 WAT
Excerpt: In the discussion of data below, occasional reference is made to herbicide application rates symbolized as "GR15 " and "GR85 "; these rates are given in kilograms per hectare (kg/ha) which are convertible into pounds per acre (lbs/A) by dividing the kg/ha rate by 1.12.
A further guide to the effectiveness of a chemical as a selective herbicide is the "selectivity factor" ("SF") for a herbicide in given crops and weeds. The selectivity factor is a measure of the relative degree of crop safety and weed injury and is expressed in terms of the GR15 /GR85 ratio, i.e., the GR15 rate for the crop divided by the GR85 rate for the weed, both rates in kg/ha (lb/A.)
as §2, §1
In Table V are presented field data showing the relative performance of the compound of Example 1 and Compounds A-D applied 9 DAT, with observations being made weekly from 3 WAT to 7 WAT; again, for illustrative and representative purposes, only the early, middle and late period observations are reported in Table V, the herbicide rates and concentrations of active ingredients the same as is shown in Table IV.

CCCCOCN(C(=O)CCl)c1c(C)cccc1C(C)(C)C [Compound C, 2'-methyl-6'-tert-butyl-N-(n-butoxymethyl)-2-chloroacetanilide]
injury rate in rice ([1]; 1.5 kg/ha (1.34 lb/A), after 4 WAT): greater than 15%
inhibition at 375 g/ha ([1]; 2 WAT): 3%
inhibition at 375 g/ha ([1]; 4 WAT): 0%
inhibition at 375 g/ha ([1]; 6 WAT): 0%
inhibition at 750 g/ha ([1]; 2 WAT): 2%
inhibition at 750 g/ha ([1]; 4 WAT): 2%
inhibition at 750 g/ha ([1]; 6 WAT): 2%
inhibition at 1500 g/ha ([1]; 2 WAT): 12%
inhibition at 1500 g/ha ([1]; 4 WAT): 18%
inhibition at 1500 g/ha ([1]; 6 WAT): 18%
inhibition at 3000 g/ha ([1]; 2 WAT): 22%
inhibition at 3000 g/ha ([1]; 4 WAT): 27%
inhibition at 3000 g/ha ([1]; 6 WAT): 30%
inhibition at 375 g/ha ([2]; 2 WAT): 98%
inhibition at 375 g/ha ([2]; 4 WAT): 100%
inhibition at 375 g/ha ([2]; 6 WAT): 98%
inhibition at 750 g/ha ([2]; 2 WAT): 100%
inhibition at 750 g/ha ([2]; 4 WAT): 100%
inhibition at 750 g/ha ([2]; 6 WAT): 100%
inhibition at 1500 g/ha ([2]; 2 WAT): 100%
inhibition at 1500 g/ha ([2]; 4 WAT): 100%
inhibition at 1500 g/ha ([2]; 6 WAT): 100%
inhibition at 3000 g/ha ([2]; 2 WAT): 98%
inhibition at 3000 g/ha ([2]; 4 WAT): 100%
inhibition at 3000 g/ha ([2]; 6 WAT): 100%
inhibition at 375 g/ha ([3]; 2 WAT): 100%
inhibition at 375 g/ha ([3]; 4 WAT): 100%
inhibition at 375 g/ha ([3]; 6 WAT): 97%
inhibition at 750 g/ha ([3]; 2 WAT): 100%
inhibition at 750 g/ha ([3]; 4 WAT): 100%
inhibition at 750 g/ha ([3]; 6 WAT): 100%
inhibition at 1500 g/ha ([3]; 2 WAT): 100%
inhibition at 1500 g/ha ([3]; 4 WAT): 100%
inhibition at 1500 g/ha ([3]; 6 WAT): 100%
inhibition at 3000 g/ha ([3]; 2 WAT): 100%
inhibition at 3000 g/ha ([3]; 4 WAT): 100%
inhibition at 3000 g/ha ([3]; 6 WAT): 100%
inhibition at 375 g/ha ([4]; 2 WAT): 63%
inhibition at 375 g/ha ([4]; 4 WAT): 52%
inhibition at 375 g/ha ([4]; 6 WAT): 18%
inhibition at 750 g/ha ([4]; 2 WAT): 68%
inhibition at 750 g/ha ([4]; 4 WAT): 58%
inhibition at 750 g/ha ([4]; 6 WAT): 18%
inhibition at 1500 g/ha ([4]; 2 WAT): 85%
inhibition at 1500 g/ha ([4]; 4 WAT): 93%
inhibition at 1500 g/ha ([4]; 6 WAT): 67%
inhibition at 3000 g/ha ([4]; 2 WAT): 82%
inhibition at 3000 g/ha ([4]; 4 WAT): 90%
inhibition at 3000 g/ha ([4]; 6 WAT): 80%
inhibition at 375 g/ha ([5]; 3 WAT): 58%
inhibition at 375 g/ha ([5]; 5 WAT): 60%
inhibition at 375 g/ha ([5]; 7 WAT): 43%
inhibition at 750 g/ha ([5]; 3 WAT): 93%
inhibition at 750 g/ha ([5]; 5 WAT): 93%
inhibition at 750 g/ha ([5]; 7 WAT): 82%
inhibition at 1500 g/ha ([5]; 3 WAT): 62%
inhibition at 1500 g/ha ([5]; 5 WAT): 87%
inhibition at 1500 g/ha ([5]; 7 WAT): 83%
inhibition at 3000 g/ha ([5]; 3 WAT): 95%
inhibition at 3000 g/ha ([5]; 5 WAT): 100%
inhibition at 3000 g/ha ([5]; 7 WAT): 100%
selectivity factor (GR15/GR85), CS in transplant rice [5]: 4

CCCCOCCN(C(=O)CCl)c1c(CC)cccc1CC [Compound B, 2',6'-diethyl-N-(n-butoxyethyl)-2-chloroacetanilide]
inhibition at 375 g/ha ([1]; 2 WAT): 7%
inhibition at 375 g/ha ([1]; 4 WAT): 3%
inhibition at 375 g/ha ([1]; 6 WAT): 7%
inhibition at 750 g/ha ([1]; 2 WAT): 3%
inhibition at 750 g/ha ([1]; 4 WAT): 2%
inhibition at 750 g/ha ([1]; 6 WAT): 3%
inhibition at 1500 g/ha ([1]; 2 WAT): 10%
inhibition at 1500 g/ha ([1]; 4 WAT): 3%
inhibition at 1500 g/ha ([1]; 6 WAT): 0%
inhibition at 3000 g/ha ([1]; 2 WAT): 7%
inhibition at 3000 g/ha ([1]; 4 WAT): 2%
inhibition at 3000 g/ha ([1]; 6 WAT): 3%
inhibition at 375 g/ha ([2]; 2 WAT): 55%
inhibition at 375 g/ha ([2]; 4 WAT): 68%
inhibition at 375 g/ha ([2]; 6 WAT): 37%
inhibition at 750 g/ha ([2]; 2 WAT): 87%
inhibition at 750 g/ha ([2]; 4 WAT): 93%
inhibition at 750 g/ha ([2]; 6 WAT): 88%
inhibition at 1500 g/ha ([2]; 2 WAT): 90%
inhibition at 1500 g/ha ([2]; 4 WAT): 98%
inhibition at 1500 g/ha ([2]; 6 WAT): 98%
inhibition at 3000 g/ha ([2]; 2 WAT): 97%
inhibition at 3000 g/ha ([2]; 4 WAT): 100%
inhibition at 3000 g/ha ([2]; 6 WAT): 100%
inhibition at 375 g/ha ([3]; 2 WAT): 97%
inhibition at 375 g/ha ([3]; 4 WAT): 90%
inhibition at 375 g/ha ([3]; 6 WAT): 80%
inhibition at 750 g/ha ([3]; 2 WAT): 95%
inhibition at 750 g/ha ([3]; 4 WAT): 98%
inhibition at 750 g/ha ([3]; 6 WAT): 100%
inhibition at 1500 g/ha ([3]; 2 WAT): 98%
inhibition at 1500 g/ha ([3]; 4 WAT): 100%
inhibition at 1500 g/ha ([3]; 6 WAT): 100%
inhibition at 3000 g/ha ([3]; 2 WAT): 100%
inhibition at 3000 g/ha ([3]; 4 WAT): 100%
inhibition at 3000 g/ha ([3]; 6 WAT): 97%
inhibition at 375 g/ha ([4]; 2 WAT): 48%
inhibition at 375 g/ha ([4]; 4 WAT): 37%
inhibition at 375 g/ha ([4]; 6 WAT): 7%
inhibition at 750 g/ha ([4]; 2 WAT): 63%
inhibition at 750 g/ha ([4]; 4 WAT): 42%
inhibition at 750 g/ha ([4]; 6 WAT): 0%
inhibition at 1500 g/ha ([4]; 2 WAT): 73%
inhibition at 1500 g/ha ([4]; 4 WAT): 65%
inhibition at 1500 g/ha ([4]; 6 WAT): 17%
inhibition at 3000 g/ha ([4]; 2 WAT): 100%
inhibition at 3000 g/ha ([4]; 4 WAT): 94%
inhibition at 3000 g/ha ([4]; 6 WAT): 72%
inhibition at 375 g/ha ([5]; 3 WAT): 93%
inhibition at 375 g/ha ([5]; 5 WAT): 100%
inhibition at 375 g/ha ([5]; 7 WAT): 77%
inhibition at 750 g/ha ([5]; 3 WAT): 78%
inhibition at 750 g/ha ([5]; 5 WAT): 67%
inhibition at 750 g/ha ([5]; 7 WAT): 67%
inhibition at 1500 g/ha ([5]; 3 WAT): 87%
inhibition at 1500 g/ha ([5]; 5 WAT): 85%
inhibition at 1500 g/ha ([5]; 7 WAT): 67%
inhibition at 3000 g/ha ([5]; 3 WAT): 75%
inhibition at 3000 g/ha ([5]; 5 WAT): 72%
inhibition at 3000 g/ha ([5]; 7 WAT): 65%
selectivity factor (GR15/GR85), CS in transplant rice [5]: 1
